# Experimental data from US7511144B2, “Reverse hydroxamic acid derivatives” (Kaken Pharmaceutical Co., Ltd., priority 2001, dated 2009).
# Biological target: T1, TACE (Homo sapiens, UniProt P78536)
# T1 construct: made in house; host or cells: mammalian cells or insect cells
# Test: TACE inhibition experiment (in vitro)
# Assay type: biochemical
# Settings: not given
# T1 sequence (P78536 215-824): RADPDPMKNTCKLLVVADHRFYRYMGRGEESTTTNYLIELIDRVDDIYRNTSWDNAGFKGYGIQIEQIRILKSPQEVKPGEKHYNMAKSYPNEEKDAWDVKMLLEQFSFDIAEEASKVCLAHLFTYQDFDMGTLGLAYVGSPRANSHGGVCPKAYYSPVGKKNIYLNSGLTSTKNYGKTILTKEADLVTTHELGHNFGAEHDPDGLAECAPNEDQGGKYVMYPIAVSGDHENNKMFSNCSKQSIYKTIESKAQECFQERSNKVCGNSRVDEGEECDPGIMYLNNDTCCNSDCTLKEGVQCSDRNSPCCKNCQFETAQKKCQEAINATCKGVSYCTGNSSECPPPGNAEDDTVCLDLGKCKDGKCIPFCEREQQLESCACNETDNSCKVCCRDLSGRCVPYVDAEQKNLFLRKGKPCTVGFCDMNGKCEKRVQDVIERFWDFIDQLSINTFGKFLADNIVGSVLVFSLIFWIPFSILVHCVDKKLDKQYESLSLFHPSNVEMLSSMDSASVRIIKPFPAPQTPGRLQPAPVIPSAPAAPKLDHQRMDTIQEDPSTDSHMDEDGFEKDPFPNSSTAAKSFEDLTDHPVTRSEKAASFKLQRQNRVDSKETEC
row,Compound,IC50 [µM]
1,Cc1cc(Cl)cc(COc2ccc(S(=O)(=O)CC(C=C3CCC4(CC3)OCCO4)N(O)C=O)cc2)c1 (stereo not shown) [Example I-103],0.5
2,Cc1cc(COc2ccc(S(=O)(=O)CC(C=C3CCC(=NO)CC3)N(O)C=O)cc2)cc(C)n1 (stereo not shown) [Example I-111],0.05
3,Cc1cc(COc2ccc(S(=O)(=O)CC(CC3CCC(=NO)CC3)N(O)C=O)cc2)cc(C)n1 (stereo not shown) [Example I-112],0.063

# Second part, the compound after the results:
row,IC50 [µM],Compound
1,0.13,Cc1cc(COc2ccc(S(=O)(=O)CC(CC3CCC(=O)CC3)N(O)C=O)cc2)cc(C)n1 (stereo not shown) [Example I-113]
2,0.1,Cc1cc(COc2ccc(S(=O)(=O)CC(C=C3CCC(=O)CC3)N(O)C=O)cc2)cc(C)n1 (stereo not shown) [Example I-114]

# Biological target: T2, Human MMP1 (Homo sapiens, UniProt P03956)
# T2 construct: purchased Calbiochem 444208
# T2 sequence (P03956 100-469): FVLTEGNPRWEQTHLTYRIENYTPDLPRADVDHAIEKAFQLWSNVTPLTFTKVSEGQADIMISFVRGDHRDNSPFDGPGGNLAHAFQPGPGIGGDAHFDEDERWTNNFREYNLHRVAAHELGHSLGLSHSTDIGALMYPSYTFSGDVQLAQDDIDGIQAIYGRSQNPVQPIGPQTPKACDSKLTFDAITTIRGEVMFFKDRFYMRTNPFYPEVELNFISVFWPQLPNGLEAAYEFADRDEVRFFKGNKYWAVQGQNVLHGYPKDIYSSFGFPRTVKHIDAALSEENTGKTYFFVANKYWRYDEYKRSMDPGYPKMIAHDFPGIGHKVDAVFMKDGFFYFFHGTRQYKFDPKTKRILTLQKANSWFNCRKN
# Test: MMP1 inhibition experiment
# Assay type: biochemical
# Settings: read-out: IC50 value MMP-1
row,Compound,IC50 [µM]
1,Cc1cc(Cl)cc(COc2ccc(S(=O)(=O)CC(C=C3CCC4(CC3)OCCO4)N(O)C=O)cc2)c1 (stereo not shown) [Example I-103],60
2,Cc1cc(COc2ccc(S(=O)(=O)CC(C=C3CCC(=NO)CC3)N(O)C=O)cc2)cc(C)n1 (stereo not shown) [Example I-111],> 100
3,Cc1cc(COc2ccc(S(=O)(=O)CC(CC3CCC(=NO)CC3)N(O)C=O)cc2)cc(C)n1 (stereo not shown) [Example I-112],> 100

# Continued, values first:
row,IC50 [µM],Compound
1,60,Cc1cc(COc2ccc(S(=O)(=O)CC(CC3CCC(=O)CC3)N(O)C=O)cc2)cc(C)n1 (stereo not shown) [Example I-113]
2,> 100,Cc1cc(COc2ccc(S(=O)(=O)CC(C=C3CCC(=O)CC3)N(O)C=O)cc2)cc(C)n1 (stereo not shown) [Example I-114]

# Biological target: T3, Human MMP2 (Homo sapiens, UniProt P08253)
# T3 construct: purchased Calbiochem 444213
# T3 sequence (P08253 110-660): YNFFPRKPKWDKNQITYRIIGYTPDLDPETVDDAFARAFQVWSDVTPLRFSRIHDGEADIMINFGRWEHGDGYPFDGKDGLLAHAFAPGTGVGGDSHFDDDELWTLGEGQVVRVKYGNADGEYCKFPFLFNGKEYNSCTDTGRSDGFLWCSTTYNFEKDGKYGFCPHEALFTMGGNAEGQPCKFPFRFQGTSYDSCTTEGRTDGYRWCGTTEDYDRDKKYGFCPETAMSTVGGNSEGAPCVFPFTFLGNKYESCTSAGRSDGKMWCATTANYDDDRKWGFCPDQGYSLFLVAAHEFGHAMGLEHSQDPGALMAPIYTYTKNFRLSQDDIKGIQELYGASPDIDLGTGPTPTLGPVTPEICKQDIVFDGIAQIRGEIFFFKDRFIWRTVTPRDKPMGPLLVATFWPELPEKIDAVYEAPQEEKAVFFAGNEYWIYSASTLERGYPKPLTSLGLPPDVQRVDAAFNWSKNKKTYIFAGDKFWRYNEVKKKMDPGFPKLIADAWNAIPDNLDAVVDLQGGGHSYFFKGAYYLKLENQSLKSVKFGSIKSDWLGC
# Test: MMP2 inhibition experiment
# Assay type: biochemical
# Settings: concentration required for 50% inhibition of enzyme activity; read-out: IC50 value MMP-2
row,Compound,IC50 [µM]
1,Cc1cc(Cl)cc(COc2ccc(S(=O)(=O)CC(C=C3CCC4(CC3)OCCO4)N(O)C=O)cc2)c1 (stereo not shown) [Example I-103],38
2,Cc1cc(COc2ccc(S(=O)(=O)CC(C=C3CCC(=NO)CC3)N(O)C=O)cc2)cc(C)n1 (stereo not shown) [Example I-111],4.1
3,Cc1cc(COc2ccc(S(=O)(=O)CC(CC3CCC(=NO)CC3)N(O)C=O)cc2)cc(C)n1 (stereo not shown) [Example I-112],1.3

# Second part, the compound after the results:
row,IC50 [µM],Compound
1,2,Cc1cc(COc2ccc(S(=O)(=O)CC(CC3CCC(=O)CC3)N(O)C=O)cc2)cc(C)n1 (stereo not shown) [Example I-113]
2,7,Cc1cc(COc2ccc(S(=O)(=O)CC(C=C3CCC(=O)CC3)N(O)C=O)cc2)cc(C)n1 (stereo not shown) [Example I-114]

# Biological target: T4, Human MMP3 (Homo sapiens, UniProt P08254)
# T4 construct: purchased Calbiochem 444217
# T4 sequence (P08254 100-272 limits assumed): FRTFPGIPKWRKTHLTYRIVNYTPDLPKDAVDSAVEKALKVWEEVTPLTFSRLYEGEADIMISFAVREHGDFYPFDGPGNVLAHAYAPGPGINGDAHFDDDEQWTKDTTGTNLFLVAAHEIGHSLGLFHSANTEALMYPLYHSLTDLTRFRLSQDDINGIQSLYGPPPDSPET
# Test: MMP3 inhibition experiment
# Assay type: biochemical
# Settings: concentration required for 50% inhibition of enzyme activity; read-out: IC50 value MMP-3
# Protocol: (§1) MMP inhibition experiment may be carried out using a fluorescent synthetic substrate according to, for example, the methods of Bickett et al. (D. Mark Bickett et al., Anal. Biochem., 1993, 212, 58-64) and Nagase et al. (H. Nagase et al., J. Biol. Chem., 1994, 269, 20952-20957). The methods of inhibition experiments carried out for various MMPs are described below.
# Human MMP3 (Calbiochem #444217) in 90 μL (5 ng) prepared in the assay buffer A was added to 90 μL of 20 μM fluorescent substrate NFF-3(MOCAc-Arg-Pro-Lys-Pro-Val-Glu-Nva-Trp-Arg-Lys(Dnp)-NH2, Peptide Institute, Inc., #3168-v) prepared in the assay buffer B, followed by reaction for 5 hours at 37° C.
row,Compound,IC50 [µM]
1,Cc1cc(Cl)cc(COc2ccc(S(=O)(=O)CC(C=C3CCC4(CC3)OCCO4)N(O)C=O)cc2)c1 (stereo not shown) [Example I-103],30
2,Cc1cc(COc2ccc(S(=O)(=O)CC(C=C3CCC(=NO)CC3)N(O)C=O)cc2)cc(C)n1 (stereo not shown) [Example I-111],30
3,Cc1cc(COc2ccc(S(=O)(=O)CC(CC3CCC(=NO)CC3)N(O)C=O)cc2)cc(C)n1 (stereo not shown) [Example I-112],4

# The remaining lines, values ahead:
row,IC50 [µM],Compound
1,8,Cc1cc(COc2ccc(S(=O)(=O)CC(CC3CCC(=O)CC3)N(O)C=O)cc2)cc(C)n1 (stereo not shown) [Example I-113]
2,23,Cc1cc(COc2ccc(S(=O)(=O)CC(C=C3CCC(=O)CC3)N(O)C=O)cc2)cc(C)n1 (stereo not shown) [Example I-114]

# Biological target: T5, Human MMP9 (Homo sapiens, UniProt P14780)
# T5 construct: purchased Calbiochem 444231
# T5 sequence (P14780 107-707 limits assumed): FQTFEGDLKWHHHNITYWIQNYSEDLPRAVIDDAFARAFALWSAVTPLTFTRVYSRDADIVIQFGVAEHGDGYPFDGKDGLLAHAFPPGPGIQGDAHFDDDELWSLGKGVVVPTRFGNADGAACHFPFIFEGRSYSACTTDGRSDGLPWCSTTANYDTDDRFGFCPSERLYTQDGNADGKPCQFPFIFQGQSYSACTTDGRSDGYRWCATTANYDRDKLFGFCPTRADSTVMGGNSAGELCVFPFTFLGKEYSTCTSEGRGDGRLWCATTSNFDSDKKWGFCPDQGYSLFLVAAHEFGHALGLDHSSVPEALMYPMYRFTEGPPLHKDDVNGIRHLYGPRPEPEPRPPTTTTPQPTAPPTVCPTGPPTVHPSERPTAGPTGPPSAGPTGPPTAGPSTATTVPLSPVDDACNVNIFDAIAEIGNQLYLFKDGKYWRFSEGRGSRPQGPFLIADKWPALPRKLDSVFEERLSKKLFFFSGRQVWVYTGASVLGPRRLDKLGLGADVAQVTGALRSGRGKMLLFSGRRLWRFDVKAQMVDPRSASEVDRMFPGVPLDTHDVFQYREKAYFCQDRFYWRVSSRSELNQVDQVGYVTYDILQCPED
# Test: MMP9 inhibition experiment
# Assay type: biochemical
# Settings: read-out: IC50 value MMP-9
row,Compound,IC50 [µM]
1,Cc1cc(Cl)cc(COc2ccc(S(=O)(=O)CC(C=C3CCC4(CC3)OCCO4)N(O)C=O)cc2)c1 (stereo not shown) [Example I-103],38
2,Cc1cc(COc2ccc(S(=O)(=O)CC(C=C3CCC(=NO)CC3)N(O)C=O)cc2)cc(C)n1 (stereo not shown) [Example I-111],> 100
3,Cc1cc(COc2ccc(S(=O)(=O)CC(CC3CCC(=NO)CC3)N(O)C=O)cc2)cc(C)n1 (stereo not shown) [Example I-112],40

# Continued, values first:
row,IC50 [µM],Compound
1,70,Cc1cc(COc2ccc(S(=O)(=O)CC(CC3CCC(=O)CC3)N(O)C=O)cc2)cc(C)n1 (stereo not shown) [Example I-113]
2,> 100,Cc1cc(COc2ccc(S(=O)(=O)CC(C=C3CCC(=O)CC3)N(O)C=O)cc2)cc(C)n1 (stereo not shown) [Example I-114]

# Biological target: T6, Human MMP13 (Homo sapiens, UniProt P45452)
# T6 construct: purchased Chemicon CC068
# Test: MMP13 inhibition experiment
# Assay type: biochemical
# Settings: concentration required for 50% inhibition of enzyme activity; read-out: IC50 value MMP-13
row,Compound,IC50 [µM]
1,Cc1cc(Cl)cc(COc2ccc(S(=O)(=O)CC(C=C3CCC4(CC3)OCCO4)N(O)C=O)cc2)c1 (stereo not shown) [Example I-103],25
2,Cc1cc(COc2ccc(S(=O)(=O)CC(C=C3CCC(=NO)CC3)N(O)C=O)cc2)cc(C)n1 (stereo not shown) [Example I-111],8
3,Cc1cc(COc2ccc(S(=O)(=O)CC(CC3CCC(=NO)CC3)N(O)C=O)cc2)cc(C)n1 (stereo not shown) [Example I-112],2

# Further lines, results first:
row,IC50 [µM],Compound
1,2.3,Cc1cc(COc2ccc(S(=O)(=O)CC(CC3CCC(=O)CC3)N(O)C=O)cc2)cc(C)n1 (stereo not shown) [Example I-113]
2,10,Cc1cc(COc2ccc(S(=O)(=O)CC(C=C3CCC(=O)CC3)N(O)C=O)cc2)cc(C)n1 (stereo not shown) [Example I-114]

# Biological target: T7, Human MMP14 (Homo sapiens, UniProt P50281)
# T7 construct: purchased Biogenesis or Calbiochem 5980-1461 or 475935
# Test: MMP14 inhibition experiment
# Assay type: biochemical
# Settings: concentration required for 50% inhibition of enzyme activity; read-out: IC50 value MMP-14
# Protocol: as §1
# Human MMP14 (Biogenesis #5980-1461 or Calbiochem #475935) in amount of 90 μL (4 ng) prepared in the assay buffer A was added to 90 μL of 20 μM fluorescent substrate (Dnp-Pro-Cha-Gly-Cys(Me)-His-Ala-Lys(Nma)-NH2) prepared in the assay buffer B, followed by reaction for 5 hours at 37° C.
row,Compound,IC50 [µM]
1,Cc1cc(Cl)cc(COc2ccc(S(=O)(=O)CC(C=C3CCC4(CC3)OCCO4)N(O)C=O)cc2)c1 (stereo not shown) [Example I-103],33
2,Cc1cc(COc2ccc(S(=O)(=O)CC(C=C3CCC(=NO)CC3)N(O)C=O)cc2)cc(C)n1 (stereo not shown) [Example I-111],> 100
3,Cc1cc(COc2ccc(S(=O)(=O)CC(CC3CCC(=NO)CC3)N(O)C=O)cc2)cc(C)n1 (stereo not shown) [Example I-112],60

# Second part, the compound after the results:
row,IC50 [µM],Compound
1,60,Cc1cc(COc2ccc(S(=O)(=O)CC(CC3CCC(=O)CC3)N(O)C=O)cc2)cc(C)n1 (stereo not shown) [Example I-113]
2,> 100,Cc1cc(COc2ccc(S(=O)(=O)CC(C=C3CCC(=O)CC3)N(O)C=O)cc2)cc(C)n1 (stereo not shown) [Example I-114]

# Biological target: T8, Human MMP17 (Homo sapiens, UniProt Q9ULZ9)
# T8 construct: purchased Calbiochem 475940
# T8 sequence (Q9ULZ9 126-300 limits assumed): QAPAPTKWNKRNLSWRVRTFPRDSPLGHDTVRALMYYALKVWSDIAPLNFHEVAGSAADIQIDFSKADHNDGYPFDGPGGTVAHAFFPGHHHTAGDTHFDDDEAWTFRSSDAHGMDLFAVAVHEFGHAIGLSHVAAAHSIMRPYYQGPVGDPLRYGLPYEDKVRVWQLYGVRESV
# Test: MMP17 inhibition test
# Assay type: biochemical
# Settings: concentration required for 50% inhibition of enzyme activity; read-out: IC50 value MMP-17
row,Compound,IC50 [µM]
1,Cc1cc(Cl)cc(COc2ccc(S(=O)(=O)CC(C=C3CCC4(CC3)OCCO4)N(O)C=O)cc2)c1 (stereo not shown) [Example I-103],40
2,Cc1cc(COc2ccc(S(=O)(=O)CC(C=C3CCC(=NO)CC3)N(O)C=O)cc2)cc(C)n1 (stereo not shown) [Example I-111],30
3,Cc1cc(COc2ccc(S(=O)(=O)CC(CC3CCC(=NO)CC3)N(O)C=O)cc2)cc(C)n1 (stereo not shown) [Example I-112],4

# Results, then the compound that gave them:
row,IC50 [µM],Compound
1,6,Cc1cc(COc2ccc(S(=O)(=O)CC(CC3CCC(=O)CC3)N(O)C=O)cc2)cc(C)n1 (stereo not shown) [Example I-113]
2,30,Cc1cc(COc2ccc(S(=O)(=O)CC(C=C3CCC(=O)CC3)N(O)C=O)cc2)cc(C)n1 (stereo not shown) [Example I-114]
